Measured values reported in patent US11254667B2 (priority 2016, dated 2022).
Converted amounts (≈) assume the structure as drawn. Where two headings read alike, the source gives them in different places.

Columns and labels:
BLK = BLK (Homo sapiens (Human), UniProt P51451); assay: biochemical; conditions: 10 μM ATP
RET = RET (Homo sapiens (Human), UniProt P07949); assay: biochemical; conditions: 10 μM ATP
SRPK1 = SRPK1 (Homo sapiens (Human), UniProt Q96SB4); assay: biochemical
[1] = tested on: normal cord blood CD34+ cells; assay: Colony formation of normal cord blood CD34+ cells; conditions: 1 μM, 10 days
IRAK1 [2] = target: T1, IRAK1 (Homo sapiens (Human), UniProt P51617); assay: Kd kinase binding assay IRAK1
in vivo = conditions: NRG/NRGS, mouse, ip, 30 mg/kg
MDSL cells = assay: CellTiter-Glo growth of MDSL cells; format: cell-based, human; conditions: 72 hours, cell-titer glow
IRAK4 phosphorylation = assay: Immunoblot of P-IRAK4 in MDSL cells; format: cell-based, human; conditions: 24 hours
FLT3 phosphorylation = assay: Immunoblot of P-FLT3 in MV4;11 cells; format: cell-based, human; conditions: 50 nM, 24 hours
[3] = NRG/NRGS, mouse, in vivo, ip, 30 mg/kg
Phospho (P)-STAT5 = assay: P-STAT5 AlphaLISA assay in MV4;11 cells; format: cell-based; conditions: Homo sapiens, read-out: IC50 of STAT5 phosphorylation
physchem = conditions: pH 7.4, aqueous buffer, kinetic from dmso stock
IRAK4 = IRAK4 (Homo sapiens (Human), UniProt Q9NWZ3); assay: biochemical
IRAK1 [4] = target: T1, IRAK1; assay: biochemical
LCK = LCK (Homo sapiens (Human), UniProt P06239); assay: biochemical; conditions: 10-dose IC50 mode, 10 μM ATP
PDGFRβ = PDGFRβ (Homo sapiens (Human), UniProt P09619); assay: biochemical; conditions: 10 μM ATP
PDGFRβ, sequence (P09619 33-1106 limits assumed): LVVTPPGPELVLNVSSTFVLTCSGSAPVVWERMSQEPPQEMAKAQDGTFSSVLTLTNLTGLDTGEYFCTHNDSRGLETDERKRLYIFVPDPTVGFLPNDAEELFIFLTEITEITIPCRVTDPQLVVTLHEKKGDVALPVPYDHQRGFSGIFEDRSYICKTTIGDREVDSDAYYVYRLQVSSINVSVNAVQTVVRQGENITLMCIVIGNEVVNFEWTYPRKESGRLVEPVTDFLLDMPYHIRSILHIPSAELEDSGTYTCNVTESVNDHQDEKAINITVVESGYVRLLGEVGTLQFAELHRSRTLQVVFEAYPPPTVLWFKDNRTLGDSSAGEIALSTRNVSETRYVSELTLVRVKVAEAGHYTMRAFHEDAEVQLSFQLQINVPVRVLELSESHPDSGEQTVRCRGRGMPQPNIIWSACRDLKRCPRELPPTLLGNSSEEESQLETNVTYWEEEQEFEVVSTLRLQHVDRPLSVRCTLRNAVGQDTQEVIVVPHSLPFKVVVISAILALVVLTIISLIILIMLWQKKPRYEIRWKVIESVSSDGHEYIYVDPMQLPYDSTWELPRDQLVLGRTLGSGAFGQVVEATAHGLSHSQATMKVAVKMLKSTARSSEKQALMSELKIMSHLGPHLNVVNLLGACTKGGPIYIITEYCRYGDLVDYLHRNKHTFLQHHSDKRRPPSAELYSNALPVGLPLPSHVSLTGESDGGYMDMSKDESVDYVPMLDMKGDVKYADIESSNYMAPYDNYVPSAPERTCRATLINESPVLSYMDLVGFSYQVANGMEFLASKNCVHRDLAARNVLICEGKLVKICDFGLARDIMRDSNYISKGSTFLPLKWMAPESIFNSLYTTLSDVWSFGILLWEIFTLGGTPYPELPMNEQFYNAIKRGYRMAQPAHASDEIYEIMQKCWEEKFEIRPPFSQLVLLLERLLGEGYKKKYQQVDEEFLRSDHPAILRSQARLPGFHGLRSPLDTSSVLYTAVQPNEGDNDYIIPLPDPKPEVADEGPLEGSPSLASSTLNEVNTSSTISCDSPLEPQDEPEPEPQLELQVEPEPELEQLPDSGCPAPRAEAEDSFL

FLT3 (D835Y) = FLT3 (D835Y) (Homo sapiens (Human), UniProt P36888, D835Y); assay: biochemical
CDK7/cyclin H = CDK7/cyclin H (Homo sapiens (Human), UniProt P50613); assay: biochemical
FLT3 = FLT3 (Homo sapiens (Human), UniProt P36888); assay: biochemical
MA9-NRas cells = assay: NRAS IC50 (MA9-NRas cells); format: cell-based; conditions: Homo sapiens, read-out: NRAS IC50
P-IRAK4 = assay: Immunoblot of compensatory P-IRAK4 in FLT3-ITD AML cells; format: cell-based, human; conditions: 50 nM
[5] = target: Receptor-type tyrosine-protein kinase FLT3 (Homo sapiens, UniProt P36888, ITD); assay: biochemical
[6] = pH 7.4
[7] = PAMPA
[8] = MV4;11 cells, 5 hours, AlphaLISA

RET, sequence (P07949 29-1114 limits assumed): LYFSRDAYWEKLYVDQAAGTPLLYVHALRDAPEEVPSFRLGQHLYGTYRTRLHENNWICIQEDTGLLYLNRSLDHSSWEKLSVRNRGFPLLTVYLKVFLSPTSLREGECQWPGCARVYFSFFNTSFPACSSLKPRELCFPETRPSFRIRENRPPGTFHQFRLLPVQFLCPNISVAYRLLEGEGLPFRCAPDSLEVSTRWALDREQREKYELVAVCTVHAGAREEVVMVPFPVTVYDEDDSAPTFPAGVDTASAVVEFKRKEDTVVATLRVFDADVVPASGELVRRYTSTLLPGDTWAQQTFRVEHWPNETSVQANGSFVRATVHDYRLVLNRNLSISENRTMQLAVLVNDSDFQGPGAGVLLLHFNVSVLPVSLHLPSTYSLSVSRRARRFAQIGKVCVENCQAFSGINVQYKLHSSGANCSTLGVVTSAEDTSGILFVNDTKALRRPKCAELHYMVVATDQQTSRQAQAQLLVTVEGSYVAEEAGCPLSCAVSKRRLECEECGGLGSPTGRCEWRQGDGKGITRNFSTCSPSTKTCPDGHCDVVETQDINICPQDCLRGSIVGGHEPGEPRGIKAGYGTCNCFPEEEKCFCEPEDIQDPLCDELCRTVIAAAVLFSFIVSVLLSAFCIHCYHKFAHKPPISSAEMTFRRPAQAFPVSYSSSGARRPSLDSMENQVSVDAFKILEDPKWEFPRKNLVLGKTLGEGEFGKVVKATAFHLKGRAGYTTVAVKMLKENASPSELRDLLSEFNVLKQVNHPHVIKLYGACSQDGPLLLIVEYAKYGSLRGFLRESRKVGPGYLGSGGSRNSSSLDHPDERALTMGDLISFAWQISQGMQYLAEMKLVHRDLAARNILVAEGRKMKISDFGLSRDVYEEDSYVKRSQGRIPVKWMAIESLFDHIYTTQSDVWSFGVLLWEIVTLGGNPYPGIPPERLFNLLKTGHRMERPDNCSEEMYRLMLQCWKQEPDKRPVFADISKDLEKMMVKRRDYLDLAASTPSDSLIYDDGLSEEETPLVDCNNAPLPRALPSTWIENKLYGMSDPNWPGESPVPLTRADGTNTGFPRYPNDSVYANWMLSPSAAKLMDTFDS

In the case of CC1(COc2ccc3c(c2)ncn3-c2ccc3cccc(N4CCC(N)CC4)c3n2)COC1 [Crenolinib, reference compound], the IC50 (BLK; 10-dose IC50 mode, read-out: IC50 BLK) is reported as 0.0207 µM, the IC50 (RET; 10-dose IC50 mode, read-out: IC50 RET) is reported as 0.0138 µM and the IC50 (SRPK1; 10-dose IC50 mode, 10 μM ATP, read-out: IC50 SRPK1) is reported as 21.7 µM.
With COc1cc2ncc(-c3cccc(NC4CCNC4)n3)n2cc1-c1cnn(C)c1 (stereo not drawn) [Compound I-24, 6-(7-methoxy-6-(1-methyl-1H-pyrazol-4-yl)imidazo[1,2-a]pyridin-3-yl)-N-(pyrrolidin-3-yl)pyridin-2-amine] the “colony formation of normal CD34+ cells” value [1] was “inhibited colony formation”, the Kd (IRAK1 [2]) was 0.0029 µM and the AUC(0-inf) (in vivo) was 6800 ng·h/mL. For the same molecule, the Cmax (in vivo) was 3570 ng/mL, the Tmax (in vivo) was 4.98 min and the “MDSL growth inhibition compared to IRAK-Inh” value (MDSL cells) was “increased ability to inhibit MDSL growth”. For the same molecule, the “IRAK4 phosphorylation (immunoblot)” value (IRAK4 phosphorylation) was “effectively inhibited pIRAK4”, the “FLT3 phosphorylation (immunoblot)” value (FLT3 phosphorylation) was “inhibited FLT3 phosphorylation comparably to AC220” and the AUCinf. [3] was 6,800 hr*ng/mL.
c1cc(N[C@@H]2CCNC2)nc(-c2cnc3ccc(-c4cn[nH]c4)cn23)c1 [Compound I-43] showed a Stability of 5.7 min, an IC50 (Phospho (P)-STAT5; [8]) of 0.0066 µM and a solubility (physchem) of 40.1 µg/mL (≈ 116 µM).
Molecule COc1cc2ncc(-c3cccc(NC4CCNC4)n3)n2cc1-c1cn[nH]c1 (stereo not drawn) [Compound I-20, 6-(7-methoxy-6-(1H-pyrazol-4-yl)imidazo[1,2-a]pyridin-3-yl)-N-(pyrrolidin-3-yl)pyridin-2-amine] has an IC50 (IRAK4) of under 0.000508 µM, a Stability (rat) of 11.6 min and an IC50 (BLK; IC50 BLK, 10-dose IC50 mode) of under 0.000508 µM. It also gave an IC50 (RET; IC50 RET, 10-dose IC50 mode) of under 0.000508 µM, an IC50 (IRAK1 [4]; IC50 IRAK1, 10-dose IC50 mode, 10 μM ATP) of 0.00534 µM and an IC50 (LCK) of under 0.000508 µM. For the same molecule, the IC50 (PDGFRβ; IC50 PDGFRb, 10-dose IC50 mode) was 0.00125 µM, the IC50 (FLT3 (D835Y)) was under 0.000508 µM and the IC50 (SRPK1) was over 10 µM. The IC50 (Phospho (P)-STAT5; MV4-11, 5 h) was 0.0036 µM, the IC50 (CDK7/cyclin H) was 0.116 µM and the solubility (physchem) was 4.5 µg/mL (≈ 12 µM). For the same molecule, the “FLT3 phosphorylation (immunoblot)” value (FLT3 phosphorylation) was “inhibited FLT3 phosphorylation comparably to AC220”, the IC50 (FLT3) was under 0.000508 µM and the IC50 (MA9-NRas cells) was 33.2 µM. For the same molecule, the “compensatory phosphorylation of IRAK4 (immunoblot)” value (P-IRAK4) was “did not result in compensatory phosphorylation of IRAK4” and the IC50 [5] was under 0.000508 µM.
With Clc1ccc2ncc(-c3cccc(NC4CCNCC4)n3)n2c1 [Compound I-2, 6-(6-chloroimidazo[1,2-a]pyridin-3-yl)-N-(piperidin-4-yl)pyridin-2-amine] the Stability (rat) was over 30.0 min, the IC50 (BLK; IC50 BLK) was […] and the IC50 (BLK; IC50 BLK, 10-dose IC50 mode) was […]. The IC50 (RET; IC50 RET) was 0.0006 µM, the IC50 (RET; IC50 RET, 10-dose IC50 mode) was 1.28 µM and the IC50 (PDGFRβ; IC50 PDGFRb, 10-dose IC50 mode) was 0.00357 µM. It also gave an IC50 (PDGFRβ; IC50 PDGFRβ) of 0.00419 µM, an AUC(0-inf) (in vivo) of 4630 ng·h/mL and a Cmax (in vivo) of 1710 ng/mL. For the same molecule, the Tmax (in vivo) was 30 min, the half-life (in vivo) was 198 min and the IC50 (SRPK1) was over 10 µM. It also gave a solubility (physchem) of over 48 µg/mL and a solubility kinetic (physchem) of over 48 µM.
In the case of Clc1ccc2ncc(-c3cccc(NC4CNC4)n3)n2c1 [Compound I-15, N-(azetidin-3-yl)-6-(6-chloroimidazo[1,2-a]pyridin-3-yl)pyridin-2-amine], the Stability is reported as 13 min, the IC50 (Phospho (P)-STAT5; [8]) is reported as 0.0017 µM and the solubility (physchem) is reported as over 44 µg/mL. The IC50 (MA9-NRas cells) was 16.6 µM.
Work on Fc1cc(F)c(-c2cnc3ccc(Cl)cn23)nc1NC1CNC1 [Compound I-56, N-(azetidin-3-yl)-6-(6-chloroimidazo[1,2-a]pyridin-3-yl)-3,5-difluoropyridin-2-amine] yielded a solubility [6] of over 50.0 µg/mL and a Permeability [7] of 1164.1 ×10⁻⁶ cm/s.
CC(C)(C)c1cc(NC(=O)Nc2ccc(-c3cn4c(n3)sc3cc(OCCN5CCOCC5)ccc34)cc2)no1 [quizartinib, reference compound] showed an IC50 (Phospho (P)-STAT5; MV4-11, 5 h) of 0.0117 µM.
Clc1ccc2ncc(-c3cccc(NC4CCCNC4)n3)n2c1 (stereo not drawn) [Compound I-17, 6-(6-chloroimidazo[1,2-a]pyridin-3-yl)-N-(piperidin-3-yl)pyridin-2-amine] gave a Stability (rat) of over 30.0 min, an IC50 (BLK; IC50 BLK, 10-dose IC50 mode) of 0.0407 µM and an IC50 (RET; IC50 RET, 10-dose IC50 mode) of 0.0105 µM. For the same molecule, the Kd (IRAK1 [2]) was 0.15 µM, the IC50 (IRAK1 [4]; read-out: IC50 IRAK1) was 1.48 µM and the IC50 (LCK) was 0.167 µM. The IC50 (PDGFRβ; IC50 PDGFRb, 10-dose IC50 mode) was 0.067 µM, the IC50 (SRPK1) was 7.67 µM and the IC50 (CDK7/cyclin H) was 0.588 µM. The solubility (physchem) was over 48 µg/mL.
